Columns and labels:
Test in all cases: KinomeScan
Assay type in all cases: binding
Conditions in all cases: read-out: % control
[1] = target: T1, AMPK-alpha1 (Homo sapiens, UniProt Q13131)
T1 construct: purchased DiscoveRx KINOMEscan

[2] = target: T2, RET(V804L) (Homo sapiens, UniProt P07949, V804L)
T2 construct: purchased DiscoveRx KINOMEscan

[3] = target: T3, TEC (Homo sapiens, UniProt P42680)
T3 construct: purchased DiscoveRx KINOMEscan

[4] = target: T4, SNRK (Homo sapiens, UniProt Q9NRH2)
T4 construct: purchased DiscoveRx KINOMEscan

[5] = target: T5, MET(M1250T) (Homo sapiens, UniProt P08581, M1250T)
T5 construct: purchased DiscoveRx KINOMEscan

[6] = target: T6, LIMK2 (Homo sapiens, UniProt P53671)
T6 construct: purchased DiscoveRx KINOMEscan

[7] = target: T7, AKT1 (Homo sapiens, UniProt P31749)
T7 construct: purchased DiscoveRx KINOMEscan

[8] = target: RPS6KA5(Kin.Dom.2-C-terminal) (Homo sapiens, UniProt O75582)
[9] = target: T8, GSK3B (Homo sapiens, UniProt P49841)
T8 construct: purchased DiscoveRx KINOMEscan

[10] = target: T9, ABL1(F317L)-nonphosphorylated (Homo sapiens, UniProt P00519, F317L)
T9 construct: purchased DiscoveRx KINOMEscan

[11] = target: T10, YES (Homo sapiens, UniProt P07947)
T10 construct: purchased DiscoveRx KINOMEscan

[12] = target: T11, TGFBR1 (Homo sapiens, UniProt P36897)
T11 construct: purchased DiscoveRx KINOMEscan

[13] = target: T12, IRAK4 (Homo sapiens, UniProt Q9NWZ3)
T12 construct: purchased DiscoveRx KINOMEscan

[14] = target: T13, PLK2 (Homo sapiens, UniProt Q9NYY3)
T13 construct: purchased DiscoveRx KINOMEscan

[15] = target: T14, BLK (Homo sapiens, UniProt P51451)
T14 construct: purchased Invitrogen (SelectScreen service)

[16] = target: T15, PAK4 (Homo sapiens, UniProt O96013)
T15 construct: purchased DiscoveRx KINOMEscan

[17] = target: T16, KIT(D816V) (Homo sapiens, UniProt P10721, D816V)
T16 construct: purchased DiscoveRx KINOMEscan

[18] = target: T17, ABL1-nonphosphorylated (Homo sapiens, UniProt P00519)
T17 construct: purchased DiscoveRx KINOMEscan

[19] = target: T18, MST1 (Homo sapiens, UniProt Q13043)
T18 construct: purchased DiscoveRx KINOMEscan

[20] = target: T19, SRC (Homo sapiens, UniProt P12931)
T19 construct: purchased DiscoveRx KINOMEscan

[21] = target: T20, EPHA7 (Homo sapiens, UniProt Q15375)
T20 construct: purchased DiscoveRx KINOMEscan

[22] = target: T21, KIT(D816H) (Homo sapiens, UniProt P10721, D816H)
T21 construct: purchased DiscoveRx KINOMEscan

[23] = target: T22, YANK3 (Homo sapiens, UniProt Q86UX6)
T22 construct: purchased DiscoveRx KINOMEscan

[24] = target: T23, ADCK4 (Homo sapiens, UniProt Q96D53)
T23 construct: purchased DiscoveRx KINOMEscan

[25] = target: T24, PIM1 (Homo sapiens, UniProt P11309)
T24 construct: purchased DiscoveRx KINOMEscan

[26] = target: T25, LRRK2(G2019S) (Homo sapiens, UniProt Q5S007, G2019S)
T25 construct: purchased DiscoveRx KINOMEscan

[27] = target: T26, KIT (Homo sapiens, UniProt P10721)
T26 construct: purchased DiscoveRx KINOMEscan

[28] = target: T27, RIOK1 (Homo sapiens, UniProt Q9BRS2)
T27 construct: purchased DiscoveRx KINOMEscan

[29] = target: T28, TNNI3K (Homo sapiens, UniProt Q59H18)
T28 construct: purchased DiscoveRx KINOMEscan

[30] = target: T29, EGFR(L861Q) (Homo sapiens, UniProt P00533, L861Q)
T29 construct: purchased DiscoveRx KINOMEscan

[31] = target: T30, SLK (Homo sapiens, UniProt Q9H2G2)
T30 construct: purchased DiscoveRx KINOMEscan

[32] = target: T31, PCTK3 (Homo sapiens, UniProt Q07002)
T31 construct: purchased DiscoveRx KINOMEscan

[33] = target: T32, CSF1R (Homo sapiens, UniProt P07333)
T32 construct: purchased DiscoveRx KINOMEscan

[34] = target: T33, ERK5 (Homo sapiens, UniProt Q13164)
T33 construct: purchased DiscoveRx KINOMEscan

[35] = target: T34, EPHA2 (Homo sapiens, UniProt P29317)
T34 construct: purchased DiscoveRx KINOMEscan

[36] = target: T35, WEE1 (Homo sapiens, UniProt P30291)
T35 construct: purchased DiscoveRx KINOMEscan

[37] = target: T36, CSNK1G2 (Homo sapiens, UniProt P78368)
T36 construct: purchased DiscoveRx KINOMEscan

[38] = target: T37, SgK110 (Homo sapiens, UniProt P0C264)
T37 construct: purchased DiscoveRx KINOMEscan

[39] = target: T38, ABL1(F317I)-phosphorylated (Homo sapiens, UniProt P00519, F317I)
T38 construct: purchased DiscoveRx KINOMEscan

[40] = target: T39, PIK3CD (Homo sapiens, UniProt O00329)
T39 construct: purchased DiscoveRx KINOMEscan

[41] = target: T40, PIK3CA(I800L) (Homo sapiens, UniProt P42336, I800L)
T40 construct: purchased DiscoveRx KINOMEscan

[42] = target: T41, VRK2 (Homo sapiens, UniProt Q86Y07)
T41 construct: purchased DiscoveRx KINOMEscan

[43] = target: T42, MAP3K2 (Homo sapiens, UniProt Q9Y2U5)
T42 construct: purchased DiscoveRx KINOMEscan

T38 sequence (P00519 whole entry F317I): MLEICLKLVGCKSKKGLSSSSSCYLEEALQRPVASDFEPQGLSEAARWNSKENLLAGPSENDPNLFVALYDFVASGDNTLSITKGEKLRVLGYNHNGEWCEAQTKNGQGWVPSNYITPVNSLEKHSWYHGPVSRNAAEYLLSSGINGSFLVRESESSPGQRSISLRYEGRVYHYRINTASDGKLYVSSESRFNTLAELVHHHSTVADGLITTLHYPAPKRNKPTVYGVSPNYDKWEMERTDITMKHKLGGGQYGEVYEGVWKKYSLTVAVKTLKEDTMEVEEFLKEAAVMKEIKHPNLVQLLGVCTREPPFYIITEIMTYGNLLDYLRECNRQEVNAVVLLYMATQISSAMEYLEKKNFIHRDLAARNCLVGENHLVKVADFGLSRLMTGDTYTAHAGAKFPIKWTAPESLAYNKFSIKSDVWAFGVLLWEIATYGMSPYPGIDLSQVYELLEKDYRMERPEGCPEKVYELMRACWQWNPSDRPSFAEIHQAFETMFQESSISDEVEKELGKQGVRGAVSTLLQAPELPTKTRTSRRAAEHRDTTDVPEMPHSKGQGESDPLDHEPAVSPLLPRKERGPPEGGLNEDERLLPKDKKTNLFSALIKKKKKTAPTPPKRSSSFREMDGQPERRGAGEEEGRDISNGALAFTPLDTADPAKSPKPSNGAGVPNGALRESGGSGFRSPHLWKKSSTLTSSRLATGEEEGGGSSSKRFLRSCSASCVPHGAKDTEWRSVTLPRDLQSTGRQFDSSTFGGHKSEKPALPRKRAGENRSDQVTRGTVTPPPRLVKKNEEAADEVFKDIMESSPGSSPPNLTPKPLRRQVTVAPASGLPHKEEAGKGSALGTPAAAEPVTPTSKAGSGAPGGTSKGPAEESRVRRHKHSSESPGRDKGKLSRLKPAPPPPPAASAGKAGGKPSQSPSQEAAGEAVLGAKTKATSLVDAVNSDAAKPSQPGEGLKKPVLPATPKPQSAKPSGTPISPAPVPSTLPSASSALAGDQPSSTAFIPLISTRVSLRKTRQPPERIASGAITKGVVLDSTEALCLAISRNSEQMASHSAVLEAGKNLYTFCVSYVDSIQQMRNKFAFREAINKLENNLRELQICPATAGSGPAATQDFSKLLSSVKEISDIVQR
T7 sequence (P31749 whole entry): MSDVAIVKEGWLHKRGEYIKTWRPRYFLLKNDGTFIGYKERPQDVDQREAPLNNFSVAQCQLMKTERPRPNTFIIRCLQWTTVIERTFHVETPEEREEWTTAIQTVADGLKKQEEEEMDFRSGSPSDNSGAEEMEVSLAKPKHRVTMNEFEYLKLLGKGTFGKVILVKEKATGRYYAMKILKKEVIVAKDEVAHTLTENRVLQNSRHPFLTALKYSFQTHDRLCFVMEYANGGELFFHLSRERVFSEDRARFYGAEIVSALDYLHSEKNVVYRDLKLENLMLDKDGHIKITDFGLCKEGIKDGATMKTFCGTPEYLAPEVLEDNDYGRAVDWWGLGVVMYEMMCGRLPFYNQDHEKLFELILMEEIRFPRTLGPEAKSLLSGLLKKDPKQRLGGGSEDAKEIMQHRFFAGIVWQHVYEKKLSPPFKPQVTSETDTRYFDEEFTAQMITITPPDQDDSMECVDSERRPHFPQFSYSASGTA
T20 sequence (Q15375 28-998): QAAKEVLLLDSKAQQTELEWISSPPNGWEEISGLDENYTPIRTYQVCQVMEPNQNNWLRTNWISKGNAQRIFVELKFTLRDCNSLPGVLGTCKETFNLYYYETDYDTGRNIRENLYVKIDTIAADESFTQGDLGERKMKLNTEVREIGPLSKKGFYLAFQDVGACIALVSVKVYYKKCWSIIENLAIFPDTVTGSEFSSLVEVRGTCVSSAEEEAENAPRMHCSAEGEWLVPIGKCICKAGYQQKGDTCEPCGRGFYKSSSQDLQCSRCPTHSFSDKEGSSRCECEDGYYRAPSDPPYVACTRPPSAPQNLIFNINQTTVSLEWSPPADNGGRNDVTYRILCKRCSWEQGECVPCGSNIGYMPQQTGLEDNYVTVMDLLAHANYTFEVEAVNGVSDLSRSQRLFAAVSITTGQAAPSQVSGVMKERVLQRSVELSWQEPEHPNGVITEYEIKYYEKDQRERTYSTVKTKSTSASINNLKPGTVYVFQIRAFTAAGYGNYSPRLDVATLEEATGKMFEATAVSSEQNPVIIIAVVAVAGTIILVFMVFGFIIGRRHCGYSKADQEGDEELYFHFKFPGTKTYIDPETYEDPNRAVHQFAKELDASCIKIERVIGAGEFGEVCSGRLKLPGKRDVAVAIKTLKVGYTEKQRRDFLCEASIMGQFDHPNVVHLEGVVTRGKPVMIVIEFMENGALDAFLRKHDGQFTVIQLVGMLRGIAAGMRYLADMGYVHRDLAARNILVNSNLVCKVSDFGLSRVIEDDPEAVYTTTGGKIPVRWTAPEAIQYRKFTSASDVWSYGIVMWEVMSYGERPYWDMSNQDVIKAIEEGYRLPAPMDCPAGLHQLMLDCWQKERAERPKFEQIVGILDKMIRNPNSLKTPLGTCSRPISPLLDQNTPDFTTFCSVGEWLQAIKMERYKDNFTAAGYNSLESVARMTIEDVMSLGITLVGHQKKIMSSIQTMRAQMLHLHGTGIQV
T15 sequence (O96013 whole entry): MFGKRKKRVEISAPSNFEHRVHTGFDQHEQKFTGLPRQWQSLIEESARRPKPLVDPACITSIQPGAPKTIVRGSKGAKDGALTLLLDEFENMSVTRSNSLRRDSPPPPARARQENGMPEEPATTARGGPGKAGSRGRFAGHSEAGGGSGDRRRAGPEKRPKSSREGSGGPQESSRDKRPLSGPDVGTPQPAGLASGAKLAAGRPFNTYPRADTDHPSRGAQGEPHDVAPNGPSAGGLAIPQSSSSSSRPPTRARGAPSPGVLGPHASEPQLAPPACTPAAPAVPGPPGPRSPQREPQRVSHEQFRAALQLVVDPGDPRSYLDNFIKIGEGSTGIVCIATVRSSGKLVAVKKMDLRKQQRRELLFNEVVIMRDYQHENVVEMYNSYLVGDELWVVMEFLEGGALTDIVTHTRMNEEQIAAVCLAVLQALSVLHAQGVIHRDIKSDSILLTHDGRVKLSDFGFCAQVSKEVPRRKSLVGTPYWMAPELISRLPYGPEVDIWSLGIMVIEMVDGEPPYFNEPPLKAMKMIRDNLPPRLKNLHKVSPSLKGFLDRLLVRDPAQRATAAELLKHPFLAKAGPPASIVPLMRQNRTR
T3 sequence (P42680 whole entry): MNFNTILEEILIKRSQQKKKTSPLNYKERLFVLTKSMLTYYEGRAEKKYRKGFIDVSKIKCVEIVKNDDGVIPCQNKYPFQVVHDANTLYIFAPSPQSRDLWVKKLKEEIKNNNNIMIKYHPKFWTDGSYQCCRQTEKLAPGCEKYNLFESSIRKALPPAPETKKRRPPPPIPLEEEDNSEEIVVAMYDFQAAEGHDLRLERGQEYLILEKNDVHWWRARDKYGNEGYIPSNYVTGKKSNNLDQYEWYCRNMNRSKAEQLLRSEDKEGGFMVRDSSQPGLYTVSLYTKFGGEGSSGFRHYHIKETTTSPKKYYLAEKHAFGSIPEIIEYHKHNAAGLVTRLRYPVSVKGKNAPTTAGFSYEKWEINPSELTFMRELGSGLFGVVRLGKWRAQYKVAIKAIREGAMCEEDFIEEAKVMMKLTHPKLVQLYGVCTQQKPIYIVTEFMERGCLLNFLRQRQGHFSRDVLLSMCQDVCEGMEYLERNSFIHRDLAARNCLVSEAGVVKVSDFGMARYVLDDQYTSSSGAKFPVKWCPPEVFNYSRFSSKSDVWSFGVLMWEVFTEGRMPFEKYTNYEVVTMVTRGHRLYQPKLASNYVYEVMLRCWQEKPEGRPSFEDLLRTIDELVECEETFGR
T18 sequence (Q13043 whole entry): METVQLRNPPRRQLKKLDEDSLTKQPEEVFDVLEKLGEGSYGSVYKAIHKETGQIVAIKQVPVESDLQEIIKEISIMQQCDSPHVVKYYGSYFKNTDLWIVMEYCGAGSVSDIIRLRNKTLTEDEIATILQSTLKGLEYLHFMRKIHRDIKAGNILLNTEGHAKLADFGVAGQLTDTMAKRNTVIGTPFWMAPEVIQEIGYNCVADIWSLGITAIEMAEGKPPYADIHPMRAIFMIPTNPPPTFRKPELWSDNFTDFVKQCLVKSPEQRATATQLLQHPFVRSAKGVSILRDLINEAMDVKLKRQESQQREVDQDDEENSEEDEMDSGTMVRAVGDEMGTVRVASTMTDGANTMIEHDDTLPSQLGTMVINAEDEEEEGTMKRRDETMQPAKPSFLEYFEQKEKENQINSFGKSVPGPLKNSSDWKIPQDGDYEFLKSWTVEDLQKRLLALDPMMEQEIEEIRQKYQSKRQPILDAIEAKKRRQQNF
T9 sequence (P00519 whole entry F317L): as the sequence (P00519 whole entry F317I) above, with I317L counted along it
T35 sequence (P30291 whole entry): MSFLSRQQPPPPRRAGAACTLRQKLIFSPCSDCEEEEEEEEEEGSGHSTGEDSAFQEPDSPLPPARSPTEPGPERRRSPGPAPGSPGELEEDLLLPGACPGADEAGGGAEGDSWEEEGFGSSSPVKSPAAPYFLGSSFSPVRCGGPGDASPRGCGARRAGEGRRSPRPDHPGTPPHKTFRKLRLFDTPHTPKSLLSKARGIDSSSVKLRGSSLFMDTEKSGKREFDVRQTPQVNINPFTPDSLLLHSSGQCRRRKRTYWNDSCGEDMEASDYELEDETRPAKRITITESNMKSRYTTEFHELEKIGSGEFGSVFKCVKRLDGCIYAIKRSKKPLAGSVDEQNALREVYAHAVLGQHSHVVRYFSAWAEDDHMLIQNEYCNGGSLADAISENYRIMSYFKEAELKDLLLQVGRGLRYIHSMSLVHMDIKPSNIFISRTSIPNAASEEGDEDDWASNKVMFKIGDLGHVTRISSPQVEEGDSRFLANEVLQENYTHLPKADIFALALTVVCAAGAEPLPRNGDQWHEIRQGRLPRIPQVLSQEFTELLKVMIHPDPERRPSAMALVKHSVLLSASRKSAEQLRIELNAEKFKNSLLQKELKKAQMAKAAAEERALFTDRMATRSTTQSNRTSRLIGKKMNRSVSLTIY
T17 sequence (P00519 whole entry): as the sequence (P00519 whole entry F317I) above, with I317F counted along it

**Q.** For C=CC(=O)N1CCC[C@@H](n2nc(-c3ccc(OCc4cccc(C)n4)c(Cl)c3)c3c(N)ncnc32)C1 [CHMFL-EGFR-26], which remaining binding at 1 µM [1] is on record?
**A.** 79%

**Q.** What about the remaining binding at 1 µM [2] of the same compound?
**A.** 100%

**Q.** And the remaining binding at 1 µM [3]?
**A.** 13%

**Q.** What about the remaining binding at 1 µM [4] of the same compound?
**A.** 100%

**Q.** What about the remaining binding at 1 µM [5] of the same compound?
**A.** 90%

**Q.** What about the remaining binding at 1 µM [6] of the same compound?
**A.** 100%

**Q.** What about the remaining binding at 1 µM [7] of the same compound?
**A.** 98%

**Q.** And the remaining binding at 1 µM [8]?
**A.** 100%

**Q.** What about the remaining binding at 1 µM [9] of the same compound?
**A.** 97%

**Q.** And the remaining binding at 1 µM [10]?
**A.** 100%

**Q.** And the remaining binding at 1 µM [11]?
**A.** 65%

**Q.** And the remaining binding at 1 µM [12]?
**A.** 7%

**Q.** What about the remaining binding at 1 µM [13] of the same compound?
**A.** 100%

**Q.** And the remaining binding at 1 µM [14]?
**A.** 89%

**Q.** And the remaining binding at 1 µM [15]?
**A.** 0.35%

**Q.** What about the remaining binding at 1 µM [16] of the same compound?
**A.** 94%

**Q.** What about the remaining binding at 1 µM [17] of the same compound?
**A.** 100%

**Q.** And the remaining binding at 1 µM [18]?
**A.** 87%

**Q.** And the remaining binding at 1 µM [19]?
**A.** 61%

**Q.** What about the remaining binding at 1 µM [20] of the same compound?
**A.** 100%

**Q.** And the remaining binding at 1 µM [21]?
**A.** 100%

**Q.** What about the remaining binding at 1 µM [22] of the same compound?
**A.** 100%

**Q.** And the remaining binding at 1 µM [23]?
**A.** 90%

**Q.** And the remaining binding at 1 µM [24]?
**A.** 100%

**Q.** What about the remaining binding at 1 µM [25] of the same compound?
**A.** 97%

**Q.** And the remaining binding at 1 µM [26]?
**A.** 100%

**Q.** What about the remaining binding at 1 µM [27] of the same compound?
**A.** 100%

**Q.** And the remaining binding at 1 µM [28]?
**A.** 90%

**Q.** What about the remaining binding at 1 µM [29] of the same compound?
**A.** 89%

**Q.** And the remaining binding at 1 µM [30]?
**A.** 0.9%

**Q.** And the remaining binding at 1 µM [31]?
**A.** 8.8%

**Q.** What about the remaining binding at 1 µM [32] of the same compound?
**A.** 94%

**Q.** What about the remaining binding at 1 µM [33] of the same compound?
**A.** 98%

**Q.** And the remaining binding at 1 µM [34]?
**A.** 100%

**Q.** And the remaining binding at 1 µM [35]?
**A.** 100%

**Q.** And the remaining binding at 1 µM [36]?
**A.** 85%

**Q.** What about the remaining binding at 1 µM [37] of the same compound?
**A.** 100%

**Q.** What about the remaining binding at 1 µM [38] of the same compound?
**A.** 100%

**Q.** And the remaining binding at 1 µM [39]?
**A.** 98%

**Q.** What about the remaining binding at 1 µM [40] of the same compound?
**A.** 100%

**Q.** And the remaining binding at 1 µM [41]?
**A.** 100%

**Q.** What about the remaining binding at 1 µM [42] of the same compound?
**A.** 95%

**Q.** And the remaining binding at 1 µM [43]?
**A.** 52%

— paper PMC5392334, “Discovery and characterization of a novel irreversible EGFR mutants selective and potent kinase inhibitor CHMFL-EGFR-26 with a distinct binding mode” (Oncotarget, 2017)
